Data as given in patent US11878975B2, “Substituted indole compounds useful as TLR inhibitors” (BRISTOL-MYERS SQUIBB COMPANY, priority 2017, dated 2024).

Columns and labels:
Type in all cases: cell-based
human TLR7 = molecular target: T1, human TLR7 (Homo sapiens, UniProt Q9NYK1); assay: TLR7 inhibition reporter assay (HEK-Blue cells, SEAP reporter, gardiquimod stimulation); settings: HEK-Blue cells overexpressing human TLR7, SEAP reporter, gardiquimod 7.5 μM
T1 construct: host or cells: HEK-Blue cells
T1 sequence (Q9NYK1 27-1049): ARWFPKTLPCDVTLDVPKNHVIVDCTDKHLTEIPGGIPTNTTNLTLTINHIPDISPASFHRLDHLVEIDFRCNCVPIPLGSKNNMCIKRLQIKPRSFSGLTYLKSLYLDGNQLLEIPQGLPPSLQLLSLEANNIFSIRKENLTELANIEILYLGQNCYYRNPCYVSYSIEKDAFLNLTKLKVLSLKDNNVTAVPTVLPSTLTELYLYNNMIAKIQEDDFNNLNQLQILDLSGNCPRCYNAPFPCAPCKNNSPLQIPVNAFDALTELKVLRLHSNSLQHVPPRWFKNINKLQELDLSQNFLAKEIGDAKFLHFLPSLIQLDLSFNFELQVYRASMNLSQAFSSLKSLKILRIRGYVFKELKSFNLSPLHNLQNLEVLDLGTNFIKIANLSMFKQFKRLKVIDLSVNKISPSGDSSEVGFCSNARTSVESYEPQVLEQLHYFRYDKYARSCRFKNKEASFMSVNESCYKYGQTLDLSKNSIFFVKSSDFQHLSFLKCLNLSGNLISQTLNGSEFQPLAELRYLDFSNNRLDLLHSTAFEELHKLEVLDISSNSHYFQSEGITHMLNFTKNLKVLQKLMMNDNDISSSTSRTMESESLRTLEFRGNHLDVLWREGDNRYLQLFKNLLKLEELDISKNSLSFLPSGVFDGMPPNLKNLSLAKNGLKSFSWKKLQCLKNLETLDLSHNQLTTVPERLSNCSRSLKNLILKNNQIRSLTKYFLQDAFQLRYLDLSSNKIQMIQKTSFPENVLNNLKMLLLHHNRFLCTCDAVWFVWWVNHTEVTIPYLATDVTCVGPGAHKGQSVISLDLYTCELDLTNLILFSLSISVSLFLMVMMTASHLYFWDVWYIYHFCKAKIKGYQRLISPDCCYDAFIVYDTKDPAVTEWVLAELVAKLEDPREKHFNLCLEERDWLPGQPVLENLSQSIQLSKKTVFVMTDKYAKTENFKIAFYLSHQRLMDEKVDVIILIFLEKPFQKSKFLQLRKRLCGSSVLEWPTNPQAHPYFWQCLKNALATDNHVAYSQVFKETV
Method in brief: (§1)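 Ligand levels: TLR7 gardiquimod 7.5 μM, TLR8 R848 15.9 μM, TLR9 ODN2006 5 nM, added after 30 min room-temperature compound pre-incubation at 0.05 nM-50 μM. Reporter SEAP read with HEK-Blue Detection reagent after 22 h, 37° C. Inhibition expressed as % reduction relative to agonist-plus-DMSO and known-inhibitor controls.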

human TLR9 = molecular target: T2, human TLR9 (Homo sapiens, UniProt Q9NR96); assay: TLR9 inhibition reporter assay (HEK-Blue cells, SEAP reporter, ODN2006 stimulation); settings: HEK-Blue cells overexpressing human TLR9, SEAP reporter, ODN2006 5 nM
T2 construct: host or cells: HEK-Blue cells
T2 sequence (Q9NR96 26-1032): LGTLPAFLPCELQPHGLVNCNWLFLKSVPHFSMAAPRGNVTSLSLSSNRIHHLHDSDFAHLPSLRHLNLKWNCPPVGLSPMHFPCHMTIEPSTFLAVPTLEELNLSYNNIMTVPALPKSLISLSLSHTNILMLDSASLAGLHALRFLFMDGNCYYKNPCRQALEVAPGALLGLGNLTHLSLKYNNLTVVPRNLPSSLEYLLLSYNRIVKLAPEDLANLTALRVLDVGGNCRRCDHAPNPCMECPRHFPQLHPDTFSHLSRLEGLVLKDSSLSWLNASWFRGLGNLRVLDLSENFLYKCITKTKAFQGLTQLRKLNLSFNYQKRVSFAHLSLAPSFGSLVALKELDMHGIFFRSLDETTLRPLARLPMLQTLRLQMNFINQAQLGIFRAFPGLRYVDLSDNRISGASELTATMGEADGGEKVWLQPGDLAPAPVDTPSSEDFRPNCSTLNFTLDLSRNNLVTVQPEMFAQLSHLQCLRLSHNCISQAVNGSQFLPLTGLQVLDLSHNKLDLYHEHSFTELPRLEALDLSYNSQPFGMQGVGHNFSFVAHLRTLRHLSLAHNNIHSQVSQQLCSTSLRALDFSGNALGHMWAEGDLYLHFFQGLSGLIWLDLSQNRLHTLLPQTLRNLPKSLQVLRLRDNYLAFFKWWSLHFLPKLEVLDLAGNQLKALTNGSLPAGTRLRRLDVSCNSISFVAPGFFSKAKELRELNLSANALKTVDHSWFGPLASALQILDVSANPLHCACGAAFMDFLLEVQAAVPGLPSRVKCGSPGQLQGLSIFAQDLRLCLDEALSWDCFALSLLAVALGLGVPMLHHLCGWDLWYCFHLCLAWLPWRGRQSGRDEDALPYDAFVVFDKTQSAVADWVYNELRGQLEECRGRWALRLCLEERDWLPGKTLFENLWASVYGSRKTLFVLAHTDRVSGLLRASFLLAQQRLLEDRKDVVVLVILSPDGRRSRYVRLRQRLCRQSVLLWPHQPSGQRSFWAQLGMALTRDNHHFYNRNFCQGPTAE
Method in brief: as §1

human TLR8 = molecular target: T3, human TLR8 (Homo sapiens, UniProt Q9NR97); assay: TLR8 inhibition reporter assay (HEK-Blue cells, SEAP reporter, R848 stimulation); settings: HEK-Blue cells overexpressing human TLR8, SEAP reporter, R848 15.9 μM
T3 construct: host or cells: HEK-Blue cells
T3 sequence (Q9NR97 27-1041): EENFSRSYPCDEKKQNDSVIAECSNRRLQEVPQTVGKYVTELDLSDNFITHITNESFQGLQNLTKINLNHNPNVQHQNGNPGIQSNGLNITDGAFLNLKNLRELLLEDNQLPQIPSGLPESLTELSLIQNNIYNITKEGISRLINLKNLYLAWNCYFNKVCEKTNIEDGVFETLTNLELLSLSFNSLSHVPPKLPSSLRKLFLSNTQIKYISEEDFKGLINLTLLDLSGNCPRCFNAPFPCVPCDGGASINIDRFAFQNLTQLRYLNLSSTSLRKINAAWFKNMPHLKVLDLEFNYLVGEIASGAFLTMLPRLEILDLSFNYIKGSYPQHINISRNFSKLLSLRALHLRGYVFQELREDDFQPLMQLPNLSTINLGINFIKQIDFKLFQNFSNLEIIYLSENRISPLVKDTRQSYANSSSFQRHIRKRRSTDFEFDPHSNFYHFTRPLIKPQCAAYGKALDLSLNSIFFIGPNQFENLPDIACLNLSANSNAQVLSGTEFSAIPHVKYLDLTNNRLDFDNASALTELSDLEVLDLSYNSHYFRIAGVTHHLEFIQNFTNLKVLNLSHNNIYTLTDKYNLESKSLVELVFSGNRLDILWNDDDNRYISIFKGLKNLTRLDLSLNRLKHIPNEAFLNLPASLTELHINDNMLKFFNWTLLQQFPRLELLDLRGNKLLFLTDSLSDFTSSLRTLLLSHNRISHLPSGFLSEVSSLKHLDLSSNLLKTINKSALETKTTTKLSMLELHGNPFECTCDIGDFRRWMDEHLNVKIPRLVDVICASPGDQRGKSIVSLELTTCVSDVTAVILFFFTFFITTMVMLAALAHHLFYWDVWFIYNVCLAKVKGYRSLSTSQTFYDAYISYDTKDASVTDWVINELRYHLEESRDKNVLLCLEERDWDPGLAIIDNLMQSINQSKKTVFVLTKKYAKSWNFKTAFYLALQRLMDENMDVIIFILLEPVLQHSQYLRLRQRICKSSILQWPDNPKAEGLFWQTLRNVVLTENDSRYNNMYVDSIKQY
Method in brief: as §1

Row | SMILES | IC50 (human TLR7) [nM] | IC50 (human TLR9) [nM] | IC50 (human TLR8) [nM]
1 | COc1cc(-c2[nH]c3ccc(C4CCC(N(C)C(C)C)C4)cc3c2C(C)C)cn2ncnc12 (single isomer, unassigned) [Example 278, N-isopropyl-3-(3-isopropyl-2-(8-methoxy-[1,2,4]triazolo[1,5-a]pyridin-6-yl)-1H-indol-5-yl)-N-methylcyclopentan-1-amine] | 2 | 1410 | 1.5
2 | CC(C)c1c(-c2ccnc3[nH]ncc23)[nH]c2ccc(C3CCC(Oc4ccncc4)CC3)cc12 (stereo not drawn) [Example 505] | 347 | 13900 | 774
3 | Cc1cc(-c2[nH]c3ccc(C4CCC(NC5(C)COC5)CC4)cc3c2C(C)C)cn2ncnc12 (single isomer, unassigned) [Example 46] | 0.1 | 1510 | 0.84
4 | Cc1c(-c2[nH]c3ccc(C4CCC(N(C)C)CC4)cc3c2C(C)C)cn2ncnc2c1C (stereo not drawn) [Example 105] | 0.75 | 2070 | 1.8
5 | Cc1cc(-c2[nH]c3ccc(CC4CCCN4CC(=O)N(C)C)cc3c2C(C)C)cn2ncnc12 (stereo not drawn) [Example 426] | 2 | 11200 | 13
6 | Cc1cc(-c2[nH]c3ccc(CC4CCCN4C4CCOCC4)cc3c2C(C)C)cn2ncnc12 (stereo not drawn) [Example 425] | 0.72 | 2490 | 1.4
7 | COc1cc(-c2[nH]c3ccc(C4CC(N)C4)cc3c2C(C)C)cn2ncnc12 (stereo not drawn) [Example 568] | 0.53 | 980 | 0.76
8 | COc1cc(-c2[nH]c3ccc(C4CCC(NC(=O)CN5CC6(COC6)C5)CC4)cc3c2C(C)C)cn2ncnc12 (stereo not drawn) [Example 138] | 0.41 | 4440 | 2.5
9 | Cc1cc(-c2[nH]c3ccc(C4CCCN(C(=O)C5C(C)(C)C5(C)C)C4)cc3c2C(C)C)cc(C)n1 (stereo not drawn) [Example 200] | 40 | 26500 | 244
10 | Cc1c(-c2[nH]c3ccc(C4CC(N(C)C(=O)CN(C)C)C4)cc3c2C(C)C)cn2ncnc2c1C (stereo not drawn) [Example 584] | 2 | 5650 | 3.8
11 | COc1cc(-c2[nH]c3ccc(C4CN(CC(=O)N(C)C)C4)cc3c2C(C)C)cn2ncnc12 [Example 262] | 618 | 22900 | 66
12 | COc1cc(-c2[nH]c3ccc(C4CCC(N5CCOCC5)CC4)cc3c2C(C)C)cn2ncnc12 (stereo not drawn) [Example 76] | 1 | 2250 | 5.7
